Test systems include 786-0 renal; HOP-62 NSCLC; HCC-2998 colon; OVCAR-8 ovarian; SK-MEL-2 melanoma; SK-MEL-5 melanoma; OVCAR-4 ovarian; BT-549 breast; CCRF-CEM leukemia; SNB-19 CNS; TK-10 renal; SF-539 CNS; MCF7 breast; SF-268 CNS; SK-OV-3 ovarian; HOP-92 NSCLC.
Common to all, as to test: growth of human tumour cells (NCI), 48 h

SMILES strings stand for the structures.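 A five-concentration, 48-hour dose response in 96-well plates underlies each endpoint, interpolated linearly between surrounding concentrations. Definition used: TGI = concentration required for complete inhibition of growth.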

Turning to `CCOC(=O)c1cc(C2CCN(c3ccccc3)C2=O)c(/C(O)=C/C(C)=O)[nH]1` (centres undefined), the TGI in the test with 786-0 renal, in the test on HOP-62 NSCLC, with HCC-2998 colon, with OVCAR-8 ovarian, with SK-MEL-2 melanoma and in the test on SK-MEL-5 melanoma was over 100 µM in each case. Also, the TGI in the test on OVCAR-4 ovarian is over 100 µM; in the test on BT-549 breast, over 100 µM; with CCRF-CEM leukemia, over 100 µM; in the test on SNB-19 CNS, over 100 µM; with TK-10 renal, over 100 µM; in the test on SF-539 CNS, 31.9 µM. Further, the TGI in the test with MCF7 breast, with SF-268 CNS and with SK-OV-3 ovarian was over 100 µM throughout.
Turning to `O=c1ccc2ccc(OP(=O)(O)O)cc2o1`, the TGI in the test on 786-0 renal, in the test on HOP-62 NSCLC, in the test on HCC-2998 colon, in the test on OVCAR-8 ovarian, with SK-MEL-2 melanoma and in the test on SK-MEL-5 melanoma was over 100 µM in each case. The TGI in the test with OVCAR-4 ovarian, in the test with BT-549 breast, in the test on CCRF-CEM leukemia, in the test with SNB-19 CNS, in the test on TK-10 renal and with SF-539 CNS was over 100 µM in each case. Moreover, the TGI in the test on MCF7 breast, with SF-268 CNS and with SK-OV-3 ovarian was over 100 µM throughout.
For `CC(=O)Nc1ccc2c3c(cc(O)c2c1)N(C(=O)CCCC(=O)N1CC(CCl)c2c1cc(O)c1cc(NC(C)=O)ccc21)CC3CCl` (centres undefined), the TGI with 786-0 renal is 0.195 µM; in the test on HOP-62 NSCLC it was 0.0596 µM; with OVCAR-8 ovarian it was over 100 µM; with SK-MEL-2 melanoma, under 0.0152 µM; in the test on OVCAR-4 ovarian it was 0.64 µM; in the test on BT-549 breast, 0.306 µM. In addition, the TGI in the test on CCRF-CEM leukemia is under 0.01 µM; in the test on TK-10 renal, 0.057 µM; in the test with SF-539 CNS it was 0.0964 µM; in the test with SK-OV-3 ovarian, over 24.6 µM.
On to `O=C(O)c1ccccc1C(=O)NCC1S(=O)(=O)OCCOS1(=O)=O`, for which the TGI with 786-0 renal, in the test with HOP-62 NSCLC, with HCC-2998 colon, with OVCAR-8 ovarian, in the test with HOP-92 NSCLC and in the test on SK-MEL-2 melanoma was over 100 µM each time. Besides, the TGI in the test on SK-MEL-5 melanoma, with OVCAR-4 ovarian, with CCRF-CEM leukemia, in the test on SNB-19 CNS, in the test with TK-10 renal and with SF-539 CNS was over 100 µM in each case. Besides, the TGI with MCF7 breast, in the test with SF-268 CNS and in the test on SK-OV-3 ovarian was over 100 µM in each case.
Consider `Cc1ccc(O)c(C(c2cccc(C(c3cc(C)ccc3O)c3cc(C)ccc3O)c2)c2cc(C)ccc2O)c1`, for which the TGI was found to be 3.18 µM in the test on 786-0 renal; 4.04 µM with HOP-62 NSCLC; 3.48 µM in the test with HCC-2998 colon; 3.87 µM in the test with OVCAR-8 ovarian; 4.61 µM in the test with SK-MEL-2 melanoma; 3.93 µM in the test on SK-MEL-5 melanoma. Also, the TGI in the test with OVCAR-4 ovarian was determined as 3.73 µM; with BT-549 breast, 4.11 µM; in the test with SNB-19 CNS, 3.34 µM; in the test with TK-10 renal it was 3.25 µM; in the test with SF-539 CNS, 3.35 µM; in the test on MCF7 breast it was 3.18 µM. The TGI amounted to 3.33 µM in the test with SF-268 CNS and 3.42 µM in the test on SK-OV-3 ovarian.
On to `CCOCCOCCOCc1nc(C#N)c(N)o1`, for which the TGI with 786-0 renal, with HOP-62 NSCLC, in the test on HCC-2998 colon, in the test with OVCAR-8 ovarian, with SK-MEL-2 melanoma and with SK-MEL-5 melanoma was over 100 µM throughout. Further, the TGI in the test on OVCAR-4 ovarian, in the test on BT-549 breast, in the test with CCRF-CEM leukemia, in the test on TK-10 renal, with SF-539 CNS and in the test with MCF7 breast was over 100 µM throughout. Also, the TGI in the test on SF-268 CNS and with SK-OV-3 ovarian was over 100 µM in each case.
For `N#CC12C(=O)NC(=O)C1(C#N)C1C=CC2CC1` (centres undefined), the TGI with 786-0 renal, in the test on OVCAR-8 ovarian, in the test on SK-MEL-5 melanoma, in the test with OVCAR-4 ovarian, with BT-549 breast and in the test with CCRF-CEM leukemia was over 100 µM in each case. Further, the TGI with SNB-19 CNS, in the test with TK-10 renal, in the test on SF-539 CNS, in the test on MCF7 breast, with SF-268 CNS and in the test on SK-OV-3 ovarian was over 100 µM each time.
`COc1cccc(/C=N/n2c(Cc3ccccc3)n[nH]c2=O)c1`: the TGI in the test on 786-0 renal, in the test on HOP-62 NSCLC, in the test with HCC-2998 colon, with OVCAR-8 ovarian, with SK-MEL-2 melanoma and with SK-MEL-5 melanoma was over 100 µM throughout. Also, the TGI in the test with OVCAR-4 ovarian, in the test with BT-549 breast, in the test with CCRF-CEM leukemia, in the test with SNB-19 CNS, in the test on TK-10 renal and in the test on SF-539 CNS was over 100 µM each time. Also, the TGI with MCF7 breast, in the test with SF-268 CNS and in the test with SK-OV-3 ovarian was over 100 µM each time.
For `O=c1nc2n3c4c(cccc4nc-2c(=O)[nH]1)CCC3`, the TGI in the test on 786-0 renal, in the test with HOP-62 NSCLC, in the test on HCC-2998 colon, in the test with OVCAR-8 ovarian, in the test on SK-MEL-2 melanoma and in the test with SK-MEL-5 melanoma was over 100 µM each time. The TGI with OVCAR-4 ovarian, with BT-549 breast, with CCRF-CEM leukemia, with SNB-19 CNS, with TK-10 renal and in the test with SF-539 CNS was over 100 µM throughout. In addition, the TGI in the test with MCF7 breast, in the test on SF-268 CNS and in the test with SK-OV-3 ovarian was over 100 µM throughout.
On to `CC(=O)OC[C@H]1CN(OC(C)=O)C[C@@H](n2cc(C)c(=O)[nH]c2=O)O1`, for which the TGI with 786-0 renal, in the test with HOP-62 NSCLC, in the test on HCC-2998 colon, in the test with OVCAR-8 ovarian, with SK-MEL-2 melanoma and with SK-MEL-5 melanoma was over 100 µM each time. Moreover, the TGI with OVCAR-4 ovarian, in the test with BT-549 breast, with SNB-19 CNS, with TK-10 renal, with SF-539 CNS and with MCF7 breast was over 100 µM each time. Also, the TGI in the test with SF-268 CNS and in the test on SK-OV-3 ovarian was over 100 µM each time.

These data come from PubChem BioAssay (NCI).
